Patent publication US10472369B2, “Crystalline forms of (6-(1H-indazol-6-yl)-N-[4-(4-(4-morpholinyl)phenyl]imidazo[1,2-A]pyrazin-8-amine) methanesulfonate” (Crystal Pharmatech Co., Ltd., priority 2016, dated 2019)
Values after ≈ are worked out from the molar mass of the structure shown. Values belong to the molecule of their own block, whether it stands above or below them.

What was measured:
[1] = Particle size distribution (PSD), laser particle size analyzer, wet process; format: physicochemical; conditions: dispersion medium Isopar G
Experimental: The particle size distribution test in the present disclosure is acquired by the S3500 laser particle size analyzer of Microtrac. Microtrac S3500 is equipped with the Sample Delivery Controller. The test is carried out by wet process, and the dispersion medium is Isopar G. The parameters are as follow:
D10: The D10 describes the diameter where 10% of the distribution has a smaller particle size.
D50: The D50 describes the diameter where 50% of the distribution has a smaller particle size. The median is also called D50.
D90: The D90 describes the diameter where 90% of the distribution has a smaller particle size. Unless otherwise specified, the following examples were conducted at room temperature.

[2] = Storage stability (purity and XRPD crystalline form after storage); format: physicochemical
Experimental: Form II obtained from example 3 was stored under 25° C./60% RH for 90 days. XRPD patterns were collected before and after stored for 15 days, 30 days and 90 days.
Form III was stored under 25° C./60% RH and 40° C./75% RH for 300 days. XRPD patterns were collected after stored for 15 days, 30 days and 300 days.

[3] = Solubility of saturated solutions in acetone and tetrahydrofuran by HPLC; conditions: saturated solution, after 24 hours
[4] = Hygroscopicity by dynamic vapor sorption (DVS); format: physicochemical; conditions: for Weight gain 10% RH / Weight gain 20% RH / Weight gain 30% RH / Weight gain 40% RH / Weight gain 50% RH / Weight gain 60% RH: DVS 0-95%-0 RH cycle at 25° C.
Experimental: Dynamic Vapor Sorption (DVS) is measured via a SMS (Surface Measurement Systems Ltd.) intrinsic DVS. Its control software is DVS-Intrinsic control software, and its analysis software is DVS-Intrinsic Analsis software. Typical Parameters for DVS test are as follows:
Gas and flow rate: N2, 200 mL/min
RH range: 0% RH to 95% RH
Hygroscopicity of form III was measured in dynamic vapor sorption (DVS) instrument using 7.34 mg of form III obtained from example 6. The DVS plot is shown in FIG. 20, and the weight gain of form III at 80% RH is 6.48%.
6.5 mg of prior form 7 was placed in a DVS instrument, and subjected to a cycle of 0-95%-0RH at 25° C., the DVS plot is shown in FIG. 23.
9.2 mg of Form I was placed in a DVS instrument, and subjected to a cycle of 0-95%-0RH at 25° C., the DVS plot is shown in FIG. 24.
3.6 mg of Form II was placed in a DVS instrument and subjected to a cycle of 0-95%-0RH at 25° C., the DVS plot is shown in FIG. 25.

[5] = cited from earlier work
[6] = Slurry/stirring in H2O/IPA solvent systems with different water activities, final form by XRPD; format: physicochemical; conditions: 6 days
Experimental: Prior form 7 as starting material was stirred at room temperature in solvent systems with different water activities for 6 days, and tested.
Prior form 3 was stirred at room temperature in solvent systems with different water activities for 4 days, then the solid was tested.

[7] = listed as Form II of the present disclosure
[8] = listed as Form I of the present disclosure

D(10) [1, 7]: 4.15 μm | D(50) [1, 7]: 27.48 μm | D(90) [1, 7]: 128.7 μm | Crystalline form after storage ([2]; 25° C./60%RH, 15 days): Form II | Purity % ([2]; 25° C./60%RH, 15 days): 99.50% | Crystalline form after storage ([2]; 25° C./60%RH, 30 days): Form II | Purity % ([2]; 25° C./60%RH, 30 days): 99.78% | Crystalline form after storage ([2]; 25° C./60%RH, 90 days): Form II | Purity % ([2]; 25° C./60%RH, 90 days): 99.52% | Crystalline form after storage ([2]; 25° C./60%RH, initial): Form II | Purity % ([2]; 25° C./60%RH, initial): 99.64% | Solubility ([3]; Acetone): 26 µg/mL (≈ 63.2 µM) | Solubility ([3]; Tetrahydrofuran): 18 µg/mL (≈ 43.7 µM) | Weight gain 10% RH [4, 7]: 1.41% | Weight gain 20% RH [4, 7]: 1.98% | Weight gain 30% RH [4, 7]: 2.34% | Weight gain 40% RH [4, 7]: 2.65% | Weight gain 50% RH [4, 7]: 2.95% | Weight gain 60% RH [4, 7]: 3.35% | weight gain at 0-70% RH (in words) ([4]; DVS at 25° C., 0-70% RH): doesn't show obvious weight gain
SMILES: c1cn2cc(-c3ccc4cn[nH]c4c3)nc(Nc3ccc(N4CCOCC4)cc3)c2n1 [Form II, 6-(1H-indazol-6-yl)-N-[4-(4-morpholinyl)phenyl] imidazo [1,2-a]pyrazin-8-amine]

D(10) [1]: 3.41 μm | D(50) [1]: 9.37 μm | D(90) [1]: 37.69 μm | Final crystalline form ([6]; H2O/IPA = 1:99, water activity 0.12, room temperature): Form III of the present | Final crystalline form ([6]; H2O/IPA = 3:97, water activity 0.3, room temperature): Form III of the present | Final crystalline form ([6]; H2O/IPA = 6:94, water activity 0.5, room temperature): Form III of the present | Final crystalline form ([6]; H2O/IPA = 11:89, water activity 0.7, room temperature): Form III of the present | Final crystalline form ([6]; H2O/IPA = 23:77, water activity 0.9, room temperature): Form III of the present | Final crystalline form in all experiments ([6]; all water activities, room temperature): converted to form III | Weight gain 10% RH [4]: 1.68% | Weight gain 20% RH [4]: 2.78% | Weight gain 30% RH [4]: 4.61% | Weight gain 40% RH [4]: 10.04% | Weight gain 40% RH ([4]; listed as prior form 7): 10% | Weight gain 50% RH [4]: 11.00% | Weight gain 60% RH [4]: 11.83%
SMILES: CS(=O)(=O)O.CS(=O)(=O)O.c1cn2cc(-c3ccc4cn[nH]c4c3)nc(Nc3ccc(N4CCOCC4)cc3)c2n1 [Prior form 7, reference compound]
weight gain at 80% RH (prior crystalline forms) ([5]; 80% RH): ~20% | hygroscopicity under various humidity conditions ([5]; various humidity conditions): very high

D(10) [1, 8]: 10.23 μm | D(50) [1, 8]: 62.54 μm | D(90) [1, 8]: 240.0 μm | Solubility ([3]; Acetone): 61 µg/mL (≈ 148 µM) | Solubility ([3]; Tetrahydrofuran): 48 µg/mL (≈ 117 µM) | Weight gain 10% RH [4, 8]: 0.69% | Weight gain 20% RH [4, 8]: 0.99% | Weight gain 30% RH [4, 8]: 1.33% | Weight gain 40% RH [4, 8]: 1.82% | Weight gain 50% RH [4]: 2.82% | Weight gain 60% RH [4, 8]: 8.13%
SMILES: c1cn2cc(-c3ccc4cn[nH]c4c3)nc(Nc3ccc(N4CCOCC4)cc3)c2n1 [Form I, 6-(1H-indazol-6-yl)-N-[4-(4-morpholinyl)phenyl] imidazo [1,2-a]pyrazin-8-amine]

Crystalline form after storage ([2]; 25° C./60%RH, 15 days): Form III | Purity % ([2]; 25° C./60%RH, 15 days): 99.71% | Crystalline form after storage ([2]; 25° C./60%RH, 30 days): Form III | Purity % ([2]; 25° C./60%RH, 30 days): 99.78% | Crystalline form after storage ([2]; 25° C./60%RH, 300 days): Form III | Purity % ([2]; 25° C./60%RH, 300 days): 99.56% | Crystalline form after storage ([2]; 25° C./60%RH, initial): Form III | Purity % ([2]; 25° C./60%RH, initial): 99.82% | Crystalline form after storage ([2]; 40° C./75%RH, 15 days): Form III | Purity % ([2]; 40° C./75%RH, 15 days): 99.68% | Crystalline form after storage ([2]; 40° C./75%RH, 30 days): Form III | Purity % ([2]; 40° C./75%RH, 30 days): 99.73% | Crystalline form after storage ([2]; 40° C./75%RH, 300 days): Form III | Purity % ([2]; 40° C./75%RH, 300 days): 99.47% | Crystalline form after storage ([2]; 40° C./75%RH, initial): Form III | Purity % ([2]; 40° C./75%RH, initial): 99.82% | weight gain at 80% RH ([4]; DVS, 25° C., 80% RH): 6.48% | crystalline form after DVS test (XRPD) ([4]; solid collected after DVS): doesn't change
SMILES: c1cn2cc(-c3ccc4cn[nH]c4c3)nc(Nc3ccc(N4CCOCC4)cc3)c2n1 [Form III, 6-(1H-indazol-6-yl)-N-[4-(4-morpholinyl)phenyl] imidazo [1,2-a]pyrazin-8-amine]
